Source: patent US9492471B2, “Methods of treating a disease or disorder associated with Bruton'S Tyrosine Kinase” (Celgene Avilomics Research, Inc., priority 2013, dated 2016)
Where two headings read alike, the source gives them in different places.

How the values were obtained:
Assay in all cases: HotSpot kinase profiling
Type in all cases: biochemical
[1] = target: T1, PKG1b (Homo sapiens, UniProt Q13976)
T1 construct: purchased Reaction Biology Corp
T1 sequence (Q13976 1-686 isoform Q13976-2): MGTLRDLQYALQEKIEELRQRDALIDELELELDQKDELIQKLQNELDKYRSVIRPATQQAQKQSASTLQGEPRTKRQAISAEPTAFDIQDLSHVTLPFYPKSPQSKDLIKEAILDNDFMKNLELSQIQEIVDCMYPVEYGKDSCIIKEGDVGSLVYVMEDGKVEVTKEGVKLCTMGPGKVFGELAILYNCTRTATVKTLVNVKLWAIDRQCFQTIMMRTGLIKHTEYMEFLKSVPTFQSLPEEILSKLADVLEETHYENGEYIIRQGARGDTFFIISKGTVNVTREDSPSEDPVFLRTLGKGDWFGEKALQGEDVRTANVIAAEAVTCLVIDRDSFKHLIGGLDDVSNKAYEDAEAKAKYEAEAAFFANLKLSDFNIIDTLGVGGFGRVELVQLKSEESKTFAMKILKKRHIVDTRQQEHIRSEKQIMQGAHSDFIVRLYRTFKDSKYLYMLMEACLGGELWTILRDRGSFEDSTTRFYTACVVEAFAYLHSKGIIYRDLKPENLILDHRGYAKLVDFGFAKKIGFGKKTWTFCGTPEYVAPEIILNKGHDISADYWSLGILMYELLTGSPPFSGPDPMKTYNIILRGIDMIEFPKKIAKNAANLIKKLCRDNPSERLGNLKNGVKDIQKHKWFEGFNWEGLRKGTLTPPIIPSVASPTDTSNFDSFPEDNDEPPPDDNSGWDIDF
Summary of the method: (§1)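 P81 filtration radiometric readout; 2 h incubation at room temperature; 0.1% phosphoric acid wash; DMSO negative control; % inhibition, mean of replicate runs.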

[2] = target: T2, LYN B (Homo sapiens, UniProt P07948)
T2 construct: purchased Reaction Biology Corp
Summary of the method: as §1

[3] = target: T3, PDGFRb (Homo sapiens, UniProt P09619)
T3 construct: purchased Reaction Biology Corp
Summary of the method: as §1

[4] = target: T4, ALK6/BMPR1B (Homo sapiens, UniProt O00238)
T4 construct: purchased Reaction Biology Corp
Summary of the method: as §1

[5] = target: T5, CHK2 (Homo sapiens, UniProt O96017)
T5 construct: purchased Reaction Biology Corp
Summary of the method: as §1

[6] = target: T6, SNARK/NUAK2 (Homo sapiens, UniProt Q9H093)
T6 construct: purchased Reaction Biology Corp
T6 sequence (Q9H093 1-628): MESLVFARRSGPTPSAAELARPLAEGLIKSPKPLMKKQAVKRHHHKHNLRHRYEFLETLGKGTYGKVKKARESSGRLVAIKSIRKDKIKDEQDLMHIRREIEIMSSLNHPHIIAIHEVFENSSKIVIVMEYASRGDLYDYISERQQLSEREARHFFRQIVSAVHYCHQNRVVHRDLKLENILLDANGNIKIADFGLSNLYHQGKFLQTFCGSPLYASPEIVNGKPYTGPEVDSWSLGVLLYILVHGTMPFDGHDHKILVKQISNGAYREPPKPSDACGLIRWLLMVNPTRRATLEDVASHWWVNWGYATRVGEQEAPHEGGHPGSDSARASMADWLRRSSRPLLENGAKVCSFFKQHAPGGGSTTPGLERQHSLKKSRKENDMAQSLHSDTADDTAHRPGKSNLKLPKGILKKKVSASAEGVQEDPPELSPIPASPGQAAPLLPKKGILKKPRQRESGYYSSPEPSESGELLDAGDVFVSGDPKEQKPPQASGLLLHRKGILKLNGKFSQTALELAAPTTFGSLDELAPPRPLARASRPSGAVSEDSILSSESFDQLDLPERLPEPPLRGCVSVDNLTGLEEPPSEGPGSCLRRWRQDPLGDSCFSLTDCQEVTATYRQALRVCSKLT
Summary of the method: as §1

[7] = target: T7, LRRK2 (Homo sapiens, UniProt Q5S007)
T7 construct: purchased Reaction Biology Corp
Summary of the method: as §1

[8] = read-out: % Enzyme Activity (relative to DMSO controls) Run 1
[9] = read-out: % Enzyme Activity (relative to DMSO controls) Run 2

T5 sequence (O96017 whole entry): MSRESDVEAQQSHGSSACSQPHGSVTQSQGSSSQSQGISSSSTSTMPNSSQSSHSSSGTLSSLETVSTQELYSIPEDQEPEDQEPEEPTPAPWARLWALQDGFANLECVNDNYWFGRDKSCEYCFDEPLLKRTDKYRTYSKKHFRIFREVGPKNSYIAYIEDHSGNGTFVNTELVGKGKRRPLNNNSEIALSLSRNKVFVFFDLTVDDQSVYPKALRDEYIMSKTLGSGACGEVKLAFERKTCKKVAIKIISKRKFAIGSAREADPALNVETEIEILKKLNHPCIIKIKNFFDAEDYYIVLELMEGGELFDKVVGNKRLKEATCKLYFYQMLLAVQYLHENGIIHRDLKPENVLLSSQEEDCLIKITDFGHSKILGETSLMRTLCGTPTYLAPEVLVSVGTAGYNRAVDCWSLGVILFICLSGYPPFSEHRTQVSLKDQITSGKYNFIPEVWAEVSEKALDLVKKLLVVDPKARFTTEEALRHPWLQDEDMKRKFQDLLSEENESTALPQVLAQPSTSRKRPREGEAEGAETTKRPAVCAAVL
T4 sequence (O00238 14-502): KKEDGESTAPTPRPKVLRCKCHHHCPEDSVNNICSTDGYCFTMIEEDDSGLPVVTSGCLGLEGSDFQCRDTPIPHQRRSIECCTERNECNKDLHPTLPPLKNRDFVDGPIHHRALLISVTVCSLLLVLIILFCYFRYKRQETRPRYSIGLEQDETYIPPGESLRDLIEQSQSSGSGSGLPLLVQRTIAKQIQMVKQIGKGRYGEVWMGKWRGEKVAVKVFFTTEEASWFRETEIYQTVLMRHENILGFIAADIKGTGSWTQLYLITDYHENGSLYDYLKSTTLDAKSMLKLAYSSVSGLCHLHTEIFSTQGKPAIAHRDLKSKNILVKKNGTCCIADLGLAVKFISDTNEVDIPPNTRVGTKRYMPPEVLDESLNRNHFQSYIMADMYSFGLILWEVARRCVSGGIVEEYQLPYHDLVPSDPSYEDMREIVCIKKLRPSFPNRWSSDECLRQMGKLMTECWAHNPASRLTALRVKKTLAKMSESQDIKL
T2 sequence (P07948 1-491 isoform P07948-2): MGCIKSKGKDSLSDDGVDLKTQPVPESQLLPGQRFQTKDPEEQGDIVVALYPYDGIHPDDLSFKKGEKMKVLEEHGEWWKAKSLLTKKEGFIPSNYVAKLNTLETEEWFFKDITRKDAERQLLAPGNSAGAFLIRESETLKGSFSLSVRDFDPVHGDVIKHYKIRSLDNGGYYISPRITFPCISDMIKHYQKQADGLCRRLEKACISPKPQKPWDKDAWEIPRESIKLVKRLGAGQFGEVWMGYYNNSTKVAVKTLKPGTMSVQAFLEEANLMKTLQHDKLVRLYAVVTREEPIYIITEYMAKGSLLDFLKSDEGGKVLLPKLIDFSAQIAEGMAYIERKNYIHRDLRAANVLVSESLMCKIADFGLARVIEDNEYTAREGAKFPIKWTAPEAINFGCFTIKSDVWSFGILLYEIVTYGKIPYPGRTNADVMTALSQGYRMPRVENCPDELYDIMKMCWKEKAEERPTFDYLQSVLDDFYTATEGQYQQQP
T3 sequence (P09619 33-1106): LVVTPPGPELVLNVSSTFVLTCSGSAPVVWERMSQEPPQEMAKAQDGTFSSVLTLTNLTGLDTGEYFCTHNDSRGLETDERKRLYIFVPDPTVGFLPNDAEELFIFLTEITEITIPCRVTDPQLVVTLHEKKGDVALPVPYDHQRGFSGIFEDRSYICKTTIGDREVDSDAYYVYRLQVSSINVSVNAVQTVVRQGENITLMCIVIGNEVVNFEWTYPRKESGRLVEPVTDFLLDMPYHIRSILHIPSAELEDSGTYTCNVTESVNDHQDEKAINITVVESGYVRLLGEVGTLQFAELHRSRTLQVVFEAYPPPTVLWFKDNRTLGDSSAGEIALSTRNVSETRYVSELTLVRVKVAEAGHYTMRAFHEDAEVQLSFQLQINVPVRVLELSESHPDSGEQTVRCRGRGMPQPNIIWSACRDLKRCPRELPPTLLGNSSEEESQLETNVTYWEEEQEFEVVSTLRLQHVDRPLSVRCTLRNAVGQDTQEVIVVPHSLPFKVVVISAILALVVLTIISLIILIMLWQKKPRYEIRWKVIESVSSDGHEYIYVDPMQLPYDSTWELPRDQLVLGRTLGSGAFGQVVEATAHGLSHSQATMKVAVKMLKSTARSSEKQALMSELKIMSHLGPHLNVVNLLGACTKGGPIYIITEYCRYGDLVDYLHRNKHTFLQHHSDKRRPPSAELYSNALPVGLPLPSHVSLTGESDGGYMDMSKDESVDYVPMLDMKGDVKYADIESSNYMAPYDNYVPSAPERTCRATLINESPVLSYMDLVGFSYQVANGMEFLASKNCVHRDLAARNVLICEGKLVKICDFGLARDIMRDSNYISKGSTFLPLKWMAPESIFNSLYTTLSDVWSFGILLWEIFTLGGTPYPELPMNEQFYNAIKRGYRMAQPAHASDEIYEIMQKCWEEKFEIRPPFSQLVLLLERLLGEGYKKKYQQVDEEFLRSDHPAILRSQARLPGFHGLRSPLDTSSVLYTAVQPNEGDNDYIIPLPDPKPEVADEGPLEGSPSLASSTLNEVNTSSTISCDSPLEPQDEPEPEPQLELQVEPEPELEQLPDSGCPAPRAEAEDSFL
T7 sequence (Q5S007 whole entry): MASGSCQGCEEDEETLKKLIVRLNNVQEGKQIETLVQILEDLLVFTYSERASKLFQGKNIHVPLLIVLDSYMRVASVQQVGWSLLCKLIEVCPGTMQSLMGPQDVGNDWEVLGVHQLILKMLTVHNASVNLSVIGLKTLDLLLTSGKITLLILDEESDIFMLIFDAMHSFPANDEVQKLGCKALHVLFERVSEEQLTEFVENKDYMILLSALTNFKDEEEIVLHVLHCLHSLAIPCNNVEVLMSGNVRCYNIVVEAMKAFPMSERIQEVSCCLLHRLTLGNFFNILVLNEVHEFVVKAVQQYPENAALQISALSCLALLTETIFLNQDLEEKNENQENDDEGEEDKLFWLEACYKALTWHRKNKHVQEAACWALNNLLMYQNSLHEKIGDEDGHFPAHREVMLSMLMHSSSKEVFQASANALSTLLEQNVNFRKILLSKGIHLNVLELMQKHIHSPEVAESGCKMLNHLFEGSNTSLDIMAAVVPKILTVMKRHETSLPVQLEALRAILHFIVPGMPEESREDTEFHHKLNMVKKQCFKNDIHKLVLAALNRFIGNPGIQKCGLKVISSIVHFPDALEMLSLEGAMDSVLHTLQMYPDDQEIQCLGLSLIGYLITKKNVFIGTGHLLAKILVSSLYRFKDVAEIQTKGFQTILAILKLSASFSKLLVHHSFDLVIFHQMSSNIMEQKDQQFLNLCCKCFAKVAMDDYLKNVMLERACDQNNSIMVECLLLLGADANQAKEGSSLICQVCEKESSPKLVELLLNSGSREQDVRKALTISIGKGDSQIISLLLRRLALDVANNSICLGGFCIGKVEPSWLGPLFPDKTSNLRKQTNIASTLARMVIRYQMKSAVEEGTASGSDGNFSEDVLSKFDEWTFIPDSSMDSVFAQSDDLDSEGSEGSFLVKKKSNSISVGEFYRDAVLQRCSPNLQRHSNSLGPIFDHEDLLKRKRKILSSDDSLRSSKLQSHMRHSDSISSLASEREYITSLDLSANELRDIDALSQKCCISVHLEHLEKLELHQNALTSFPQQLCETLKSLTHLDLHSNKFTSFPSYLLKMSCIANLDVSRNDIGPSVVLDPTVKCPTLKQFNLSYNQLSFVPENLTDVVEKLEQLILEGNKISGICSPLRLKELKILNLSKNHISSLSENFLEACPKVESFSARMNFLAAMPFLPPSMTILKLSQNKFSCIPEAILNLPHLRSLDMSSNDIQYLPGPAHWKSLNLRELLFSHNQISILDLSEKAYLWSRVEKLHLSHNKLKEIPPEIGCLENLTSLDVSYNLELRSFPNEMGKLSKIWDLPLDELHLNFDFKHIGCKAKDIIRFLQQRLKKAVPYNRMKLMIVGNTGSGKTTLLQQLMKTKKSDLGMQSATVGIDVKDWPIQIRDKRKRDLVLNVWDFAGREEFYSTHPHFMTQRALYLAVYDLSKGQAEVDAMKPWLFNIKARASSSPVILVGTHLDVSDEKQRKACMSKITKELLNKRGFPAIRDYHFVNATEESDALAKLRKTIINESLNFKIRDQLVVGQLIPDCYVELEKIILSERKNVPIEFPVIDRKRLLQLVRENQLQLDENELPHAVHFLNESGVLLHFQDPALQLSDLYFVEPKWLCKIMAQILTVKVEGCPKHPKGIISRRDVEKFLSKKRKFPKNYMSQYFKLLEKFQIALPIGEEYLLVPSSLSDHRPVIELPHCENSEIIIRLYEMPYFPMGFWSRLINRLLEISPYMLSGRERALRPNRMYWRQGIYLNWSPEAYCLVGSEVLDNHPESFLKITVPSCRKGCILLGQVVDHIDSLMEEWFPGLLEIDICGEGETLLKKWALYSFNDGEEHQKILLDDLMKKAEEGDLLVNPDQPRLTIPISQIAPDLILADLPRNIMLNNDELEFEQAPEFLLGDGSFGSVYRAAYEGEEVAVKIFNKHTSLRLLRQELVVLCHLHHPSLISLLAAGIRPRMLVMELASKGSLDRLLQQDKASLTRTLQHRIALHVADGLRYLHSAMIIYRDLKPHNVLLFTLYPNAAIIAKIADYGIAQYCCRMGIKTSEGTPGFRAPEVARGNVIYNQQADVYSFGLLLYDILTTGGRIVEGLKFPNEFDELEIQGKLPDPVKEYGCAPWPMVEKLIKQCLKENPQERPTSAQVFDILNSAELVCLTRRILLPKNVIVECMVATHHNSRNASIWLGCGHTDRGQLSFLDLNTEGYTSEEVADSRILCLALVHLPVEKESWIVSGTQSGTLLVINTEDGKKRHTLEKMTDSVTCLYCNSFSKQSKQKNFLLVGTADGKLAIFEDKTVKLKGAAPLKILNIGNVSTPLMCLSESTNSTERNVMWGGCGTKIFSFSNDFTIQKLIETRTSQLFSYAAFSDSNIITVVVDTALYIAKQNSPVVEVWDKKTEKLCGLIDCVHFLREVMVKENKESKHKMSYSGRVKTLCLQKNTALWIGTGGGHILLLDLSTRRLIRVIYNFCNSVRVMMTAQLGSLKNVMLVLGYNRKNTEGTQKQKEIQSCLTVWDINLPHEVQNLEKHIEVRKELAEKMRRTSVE

C=CC(=O)Nc1cccc(Nc2nc(Nc3ccc(OCCOC)c(F)c3)ncc2F)c1 [Compound 2]
inhibition at 3 µM [1]: 13.8%
remaining activity at 3 µM [1, 8]: 85.4%
remaining activity at 3 µM [1, 9]: 87.1%
inhibition at 3 µM [2]: 5.7%
remaining activity at 3 µM [2, 8]: 92.9%
remaining activity at 3 µM [2, 9]: 95.7%
inhibition at 3 µM [3]: 52.4%
remaining activity at 3 µM [3, 8]: 47.7%
remaining activity at 3 µM [3, 9]: 47.4%
inhibition at 3 µM [4]: -80.4%
remaining activity at 3 µM [4, 8]: 177%
remaining activity at 3 µM [4, 9]: 184%
inhibition at 3 µM [5]: 74.4%
remaining activity at 3 µM [5, 8]: 25.9%
remaining activity at 3 µM [5, 9]: 25.3%
inhibition at 3 µM [6]: 15.7%
remaining activity at 3 µM [6, 8]: 83.7%
remaining activity at 3 µM [6, 9]: 84.9%
inhibition at 3 µM [7]: 65.9%
remaining activity at 3 µM [7, 8]: 33%
remaining activity at 3 µM [7, 9]: 35.1%
